Numbered stars: 1 amine (or outer) side, 2 acyl side, 3 side chain; on linkers, the order of the positions; unused ones are H or OH. Square brackets hold non-standard residues; d marks the D form. Ends that are not written are not given here. βAsp = O=C(O)[C@H](CC(=O)[*:2])N[*:1]
Key:
[1] = test system: B and T cell compartments; conditions: mice immunized with peptide (Mamula et al. 1999); cited from earlier work
[2] = test system: CD8 T cells stimulated with isoaspartyl or aspartyl TRP-2 pulsed APCs; test: CD8 T cell proliferation after immunization with TRP-2 peptide; format: in vivo, C57B1/6 mice; conditions: 50 μg peptide s.c. in CFA, day 7 lymph node CD8 T cells
Method: FIG. 7 illustrates that immunization with isoaspartyl TRP-2 peptide elicits CD8 T cells that proliferate in response to stimulation with isoaspartyl or aspartyl TRP-2 peptide. For these studies, C57B1/6 mice are immunized subcutaneously with 50 μg of either isoaspartyl TRP-2 peptide or aspartyl TRP-2 peptide emulsified in complete Freund's adjuvant (CFA). After 7 days, lymph node cells are collected and CD8 T cells are purified by magnetic bead depletion of CD4+, B220+, CD11c+ cells. CD8 T cells (1×10^5) are incubated for 3 days in tissue culture (37° C., 5% CO2) with irradiated splenic antigen presenting cells (APCs; 5×10^5 cells) pulsed with isoaspartyl TRP-2 or aspartyl TRP-2 in the concentrations as indicated.

B16F10 melanoma cells = test: Anti-tumor antibody response: serum binding to B16F10 cells by flow cytometry; format: in vivo, mice; conditions: 50 μg peptide s.c., serum day 28, 1/100 dilution, anti-mouse IgG-FITC
Method: FIG. 8 illustrates that immunization with isoaspartyl TRP-2 elicits anti-tumor antibody responses. Mice were immunized subcutaneously with 50 μg of isoaspartyl or aspartyl TRP-2 peptide, as indicated. Mice were bled at day 28 post immunization. Serum (1/100 dilutions in phosphate buffered saline (PBS)) was incubated with B16F10 melanoma cells (5×10^5 cells) and analyzed by flow cytometry after the detection of bound antibody with anti-mouse IgG-FITC.

[3] = test system: TRP-2 specific CD8 T cells; test: MHC class I (H-2 Kb) TRP-2 tetramer staining of CD8 T cells after immunization; format: in vivo, mice; conditions: 50 μg s.c. in CFA, day 14 lymph node cells, 5 day culture with isoaspartyl TRP-2 10 μg/ml
Method: FIG. 9 illustrates that CD8 T cells specific for the TRP-2 peptide are elicited by immunization with isoaspartyl TRP-2 peptide. Mice were immunized subcutaneously with 50 μg of isoaspartyl TRP-2 emulsified in CFA. At day 14 after immunization, lymph node cells were removed and single cell suspensions (4×10^6 cells/ml) were incubated in culture with isoaspartyl TRP-2 peptide (10 μg/ml) for 5 days (37° C., 5% CO2). Living cells were purified by Ficoll-hypaque and incubated with anti-CD8-FITC antibody (Promega Inc.) and MHC class I (H-2 Kb) tetramers linked to PE, as indicated. Tetramer staining was performed with a control, non-specific peptide (SIINFEKL) (SEQ ID NO:4) and with aspartyl and isoaspartyl TRP-2 peptide tetramers, as indicated.

[4] = test system: EL-4 target cells pulsed with TRP-2; test: Cytotoxicity of CD8 T cells from immunized mice against peptide-pulsed EL-4 target cells (Cytotox 96); format: in vivo; conditions: 50 μg in CFA s.c.; effector to target ratios 5:1, 10:1, 20:1; EL-4 targets
Method: FIG. 10 illustrates that immunization with isoaspartyl TRP-2 peptide elicits CD8 T cells that kill tumor peptide bearing target cells. Mice were immunized with isoaspartyl or aspartyl TRP-2 (50 μg in CFA), by subcutaneous route. Lymph node cells were expanded in vitro for 5 days with isoaspartyl TRP-2 as described above. After 5 days, purified effector CD8 T cells were mixed with EL-4 target cells pulsed with isoaspartyl TRP-2, aspartyl TRP-2, or unpulsed EL-4 cells, as indicated. Averages of triplicate cultures are reported for effector to target ratios of 5:1, 10:1, and 20:1. Cytotoxicity was performed by commercial non-radioactive methods (Ctyotox 96, Promega, Inc.) according to the manufacturer's instructions. As indicated in the upper panel of FIG. 10, mice immunized with isoaspartyl TR-2 peptide kill up to 35% of TRP-2 pulsed target cells.

[5] = test system: TRP-2 peptide pulsed syngeneic spleen cells; test: In vivo CTL assay: killing of tumor peptide pulsed target cells; design: species or system mice; conditions: 50 μg in CFA s.c., day 21, 16 hours
Method: In this approach, groups of 6 mice were immunized with isoaspartyl or aspartyl TRP-2 (50 μg in CFA), by subcutaneous route. At day 21 mice were examined for their ability to kill tumor peptide pulsed target cells (in vivo CTL assays) modified by the protocol of Coles, et al. (J. Immunol. 168:834-838 (2002)). In brief, two populations of syngeneic target spleen cells are labeled with low or high concentrations of CFSE (0.5 μM or 5.0 μM CFSE, respectively). Spleen cells labeled with 5.0 μM CFSE are pulsed with isoaspartyl or aspartyl TRP-2 peptide (1 μg/ml) as the in vivo target cell population. Both high CFSE labeled/TRP-2 peptide pulsed and low CFSE labeled/unpulsed spleen cells (1×10^7 cells for each population) are transferred by intravenous route into immunized mice as described above. Mice were sacrificed at 16 hours and in vivo lysis of peptide pulsed targets is defined by flow cytometry technology as: Ratio=% CFSE low/% CFSE high % Specific Killing=[1−(ratio in control immunized/ratio in immunized)×100].

[6] = test system: B16F10 melanoma tumor masses; test: CD8 T cell influx into B16F10 melanoma tumor tissue (immunohistochemistry); format: in vivo, mice; conditions: 50 μg in CFA s.c.; challenge day 21 with 0.5×10^6 B16F10 cells; tumors day 14 after challenge
Method: FIG. 11 illustrates an influx of CD8 T cells into melanoma tumor tissues of mice immunized with isoaspartyl TRP-2 immunized mice. […] For these studies, mice were immunized with isoaspartyl or aspartyl TRP-2 (50 μg in CFA), by subcutaneous route. At day 21, mice were challenged with 0.5×10^6 B16F10 melanoma cells by subcutaneous route. At day 14 after tumor cell challenge, tumor masses were removed and stain for CD8 T cells by conventional immunohistochemistry.

B16F10 tumor cells = test: Survival of immunized mice challenged with B16F10 tumor cells; format: in vivo; conditions: 50 μg in CFA s.c.; challenge s.c. day 21 with 0.5×10^6 cells; groups of 10 mice
Method: For these studies, groups of 10 mice were immunized with isoaspartyl or aspartyl TRP-2 (50 μg in CFA), by subcutaneous route as described above. Mice were challenged subcutaneously at day 21 with 0.5×10^6 cells. Survival was assessed every 3 days.

B16 melanoma cells = test: Isoaspartyl content of living B16 melanoma cells after adenosine dialdehyde treatment (ISOQUANT assay); format: cell-based, murine; conditions: 30 μM adenosine dialdehyde, 48 h
Method: Isoaspartyl residues were detected by the enzyme, protein isoaspartyl methyltransferase, according to the manufacturer's protocol (ISOQUANT™ Protein Deamidation Detection Kit, Promega Corp., Madison, Wis.). In brief, samples and control peptides are incubated 30 min. at 30 C in a reaction mixture containing protein isoaspartyl methyltransferase, [^3H}S-adenosyl-L-methionine, and cold S-adenyl-L-methionine. The reaction is stopped at pH 10 on ice and volatile [^3H]methanol is condensed in the reaction vessel. Fifty μl of sample is adsorbed to a sponge attached to the cap of a scintillation vial. The sample is incubated 60 min. at 40 C to volatize [^3H]methanol into the scintillation mixture and counted for counts/min. […]
Briefly, selected cells, such as B16-F0 melanoma cells, are grown to confluency. The cells are then exposed to trypsin and counted. […] The cells are next harvested using trypsin, washed, and counted. […] Protein concentration is determined in both the supernatant and the pellet. Isoaspartyl generation is determined by ISOQUANT assay described above.
In cell culture, B16 cells were incubated with 30 μM adenosine dialdehyde for 48 h as described above. […] Isoaspartyl content was determined as described above.

[7] = target cells transferred: Asp TRP-2 pulsed
[8] = target cells transferred: Isoasp TRP-2 pulsed

Compound: murine cytochrome c peptide 90-104: murine cytochrome c peptide 90-104, normal aspartyl form (ERADLIAYLKKATNE; UniProt P62897 91-105, looked up, fragment)
- B and T cell response to immunization [1]: no response by the B or T cell compartments

Compound: Isoaspartyl TRP-2: TRP-2 peptide (sequence 181-188) synthesized with an isoaspartyl amino acid modification at residue 183 (SEQ ID NO:3) (VY[βAsp]FFVWL)
- CD8 T cell response to stimulation with isoaspartyl or aspartyl TRP-2 peptide [2]: elicits cross reactive T cells that respond to stimulation with either isoaspartyl or aspartyl TRP-2 peptide
- anti-tumor antibodies binding B16F10 cells (B16F10 melanoma cells): effectively bind B16F10 cells
- TRP-2 specific CD8 T cells bound by aspartyl and isoaspartyl TRP-2 tetramers [3]: profoundly stimulated the growth of CD8 T cells that were bound by aspartyl and isoaspartyl TRP-2 tetramers
- killing of TRP-2 pulsed target cells [4]: up to 35%
- % Specific Killing [5, 7]: 56%
- % Specific Killing [5, 8]: 60%
- influx of CD8 T cells into tumor masses [6]: significant influx of CD8 T cells
- survival after B16F10 challenge (B16F10 tumor cells): greater survival as compared to mice immunized with aspartyl TRP-2 or CFA control immunizations

Compound: Nc1ncnc2c1ncn2C(C=O)OC(C=O)CO (centres unmarked) [adenosine dialdehyde]
- isoaspartyl content compared to untreated B16 cells (B16 melanoma cells): enhanced from two to five fold

Compound: Aspartyl TRP-2: TRP-2 peptide (sequence 181-188) synthesized with an aspartic acid residue at 183 (SEQ ID NO:2) (VYDFFVWL; Human)
- CD8 T cell response to stimulation with isoaspartyl or aspartyl TRP-2 peptide [2]: fails to elicit any detectable T cell responses
- anti-tumor antibodies binding B16F10 cells (B16F10 melanoma cells): little or no anti-tumor antibodies are detected
- TRP-2 specific CD8 T cells bound by aspartyl and isoaspartyl TRP-2 tetramers [3]: failed to stimulate TRP-2 specific CD8 T cells
- killing of TRP-2 pulsed target cells [4]: fail to elicit cytotoxic T cell responses
- % Specific Killing [5, 7]: 5%
- % Specific Killing [5, 8]: 22%
- influx of CD8 T cells into tumor masses [6]: fail to show CD8 T cells in the tumor masses
